Experimental data published in patent US12306194B2, “Reagent for fluorescence imaging of lipid droplets in cell and tissue” (NATIONAL UNIVERSITY CORPORATION GUNMA UNIVERSITY, priority 2019, dated 2025).

Experiments:
[1] = tested on: 3T3-L1 cells (adipocytes); test: Intracellular retention property in 3T3-L1 cells; format: cell-based
Procedure: (§1) Using a fluorescence microscope (IX71, manufactured by Olympus Corporation), fluorescence imaging images of cells were acquired over time, and the photostability (It/I0) and the retention property were measured.
For evaluation of the intracellular retention property of each reagent, each fluorescent reagent was added to 3T3-L1 cells (adipocytes) to a final concentration of 100 nM (for Lipi-Green, 500 nM), and imaging images were acquired after 30 minutes of culture and 24 hours after washing away of the reagent.

[2] = tested on: lipid droplets in HeLa cells; test: Fluorescence imaging of lipid droplets in oleic acid-treated HeLa cells; format: cell-based
Source text: Since LipiDye requires use of an excitation wavelength of about 405 nm, there is a concern about phototoxicity to cells in cases of long observation.

[3] = tested on: 3T3-L1 cells (adipocytes); test: Intracellular photostability under excitation light in 3T3-L1 cells; format: cell-based; details: summary grade, Table 3
Procedure: as §1
The photostability and the retention property are important factors in long-term measurement for, for example, tracing the processes of formation, fusion, and degradation of lipid droplets. Each fluorescent reagent was added to 3T3-L1 cells (adipocytes) to a final concentration of 100 nM, and the cells were cultured for 30 minutes. After washing the cells, the cells were irradiated with an excitation light required for imaging (450 to 500 nm; for LipiDye, an excitation wavelength of 400 to 440 nm), to evaluate the photostability. By regarding the time immediately after the irradiation as Second 0, imaging images were acquired at 20-second intervals for analysis of the image intensity.

[4] = Measurement of maximum absorption wavelength, maximum fluorescence wavelength and fluorescence quantum yield in solvents; format: physicochemical
Procedure: Using a luminescent quantum yield measurement apparatus ([…]-01, manufactured by Hamamatsu Photonics K.K.), the maximum absorption wavelength (λabs/nm), the maximum fluorescence wavelength (λflu/nm), and the fluorescence quantum yield (Φf) of the compound in each solvent were measured. The absorption spectrum was measured using an ultraviolet and visible spectrophotometer (Ubest-550, manufactured by JASCO Corporation), and the fluorescence emission spectrum was measured using a fluorescence spectrophotometer (F-7000, manufactured by Hitachi, Ltd.)

[5] = Measurement of fluorescence lifetime in solvents; format: physicochemical
Procedure: The fluorescence lifetime (τf) of each compound in each solvent was measured using a compact fluorescence lifetime measurement apparatus (Quntaurus-Tau, manufactured by Hamamatsu Photonics K.K.).

[6] = 100 nM (Lipi-Green 500 nM), 3T3-L1 cells, 24 hours after washing away of the reagent

Row | Photostability [3] | Φf (fluorescence quantum yield) ([4]; in Bu2O (dibutyl ether)) | λmax abs (maximum absorption wavelength) ([4]; in Bu2O (dibutyl ether)) | λmax flu (maximum fluorescence wavelength) ([4]; in Bu2O (dibutyl ether)) | Φf (fluorescence quantum yield) ([4]; in MeCN) | λmax abs (maximum absorption wavelength) ([4]; in MeCN) | λmax flu (maximum fluorescence wavelength) ([4]; in MeCN) | τf (fluorescence lifetime) ([5]; in Bu2O (dibutyl ether)) | τf (fluorescence lifetime) ([5]; in MeCN) | SMILES | intracellular retention property [1, 6] | Brightness in cells ([2]; summary grade, Table 3) | Selectivity for lipid droplets ([2]; summary grade, Table 3) | intracellular retention property ([1]; summary grade, Table 3) | imaging of lipid droplets / lipid droplet selectivity in HeLa cells ([2]; 100 nM reagent, 30 minutes, 400 μM oleic acid 48 hours) | fluorescence intensity of HeLa cells ([2]; 100 nM reagent, 30 minutes, compared with BODIPY493/503 or Lipi Green)
1 | Δ | – | – | – | – | – | – | – | – | CCN(CC)c1ccc2nc3c4ccccc4c(=O)cc-3oc2c1 [Nile Red] | remarkable decreases in the fluorescence intensity | ◯ | – | Δ | low lipid droplet selectivity | higher fluorescence intensities
2 | – | 0.89 | 458 nm | 523 nm | 0.82 | 477 nm | 604 nm | 2.79 ns | 3.78 ns | CCN(CC)c1ccc2cc3cc(-c4nc5ccccc5[nH]4)c(=O)oc3cc2c1 [PC6NH, 3-(1H-Benzo[d]imidazol-2-yl)-8-(diethylamino)-2H-benzo[g]chromen-2-one] | – | – | – | – | – | –

Continued, compound first:

Row | SMILES | Photostability [3] | Φf (fluorescence quantum yield) ([4]; in Bu2O (dibutyl ether)) | λmax abs (maximum absorption wavelength) ([4]; in Bu2O (dibutyl ether)) | λmax flu (maximum fluorescence wavelength) ([4]; in Bu2O (dibutyl ether)) | Φf (fluorescence quantum yield) ([4]; in MeCN) | λmax abs (maximum absorption wavelength) ([4]; in MeCN) | λmax flu (maximum fluorescence wavelength) ([4]; in MeCN) | τf (fluorescence lifetime) ([5]; in Bu2O (dibutyl ether)) | τf (fluorescence lifetime) ([5]; in MeCN) | intracellular retention property [1, 6] | Brightness in cells ([2]; summary grade, Table 3) | Selectivity for lipid droplets ([2]; summary grade, Table 3) | intracellular retention property ([1]; summary grade, Table 3) | imaging of lipid droplets / lipid droplet selectivity in HeLa cells ([2]; 100 nM reagent, 30 minutes, 400 μM oleic acid 48 hours) | fluorescence intensity of HeLa cells ([2]; 100 nM reagent, 30 minutes, compared with BODIPY493/503 or Lipi Green)
3 | CC1=CC(C)=[N+]2C1=C(C)c1c(C)cc(C)n1[B-]2(F)F [BODIPY493/503] | – | – | – | – | – | – | – | – | – | remarkable decreases in the fluorescence intensity | Δ | ◯ | – | – | –
4 | CCN(CC)c1ccc2cc3cc(-c4nc5ccccc5n4C)c(=O)oc3cc2c1 [PC6NMe, 8-(Diethylamino)-3-(1-methyl-1H-benzo[d]imidazol-2-yl)-2H-benzo[g]chromen-2-one] | – | 0.67 | 438 nm | 512 nm | 0.77 | 449 nm | 590 nm | 3.53 ns | 4.08 ns | – | – | – | – | – | –
5 | CCN(CC)c1ccc2cc3cc(-c4nc5ccccc5o4)c(=O)oc3cc2c1 [PC6O, 3-(Benzo[d]oxazol-2-yl)-8-(diethylamino)-2H-benzo[g]chromen-2-one] | – | 0.86 | 460 nm | 530 nm | 0.80 | 478 nm | 613 nm | 2.83 ns | 3.70 ns | – | – | – | – | – | –
